Experimental data: patent US20030069264A1, “METHOD OF DETERMINING AND REDUCING THE RISK OF BPH-RELATED UROLOGIC EVENTS” (priority 1998, published 2003)
Entries after “also recorded” stand apart in the source; their conditions may differ.

Test system: men with clinical BPH
Assay: four-year, double-blind placebo-controlled study of finasteride in men with clinical BPH (acute urinary retention and BPH-related surgery outcomes)
Format: in vivo, human
Details: for risk of AUR or BPH-related surgery / finasteride-related reduction of risk (AUR or surgery): 4 years; for finasteride-related reduction of risk (AUR or surgery): versus placebo
Protocol: A total of 3040 men with clinical BPH diagnosed on the basis of moderate-to-severe symptoms, a decreased peak urinary flow rate (less than 15 mL/sec with a voided volume of 150 mL or more) and an enlarged prostate gland by digital rectal examination (DRE) were enrolled in a four-year study comparing finasteride with placebo. Men receiving alpha blocking agents or antiandrogens, and men with a history of chronic prostatitis, recurrent urinary tract infections, prostate or bladder cancer or surgery, or a serum PSA over 10 ng/mL were excluded. Men with serum PSA concentrations between 4.0 and 9.9 ng/mL had to have a negative prostate biopsy prior to enrollment.
After a one-month single-blind placebo lead-in, men were randomly assigned to receive placebo or 5 mg of finasteride (17β-(N-tert-butylcarbamoyl)-3-oxo-4-aza-5α-androst-1-en-3-one) daily in a four year, double-blind placebo-controlled study. BPH-related outcomes including symptoms, bothersomeness, adverse events and urinary flow rates, were assessed every 4 months. Serum PSA was measured every 4 months in the first year and then every 8 months at a central laboratory. Physical examination and routine hematological and serum chemistry tests were performed yearly. Magnetic resonance imaging (MRI) was performed at baseline and subsequently yearly in a subset of 10% of patients. All MRI images were read by a central radiologist blinded to treatment allocation and time of imaging.
Acute urinary retention (AUR) and surgery for BPH were predefined secondary end-points. The endpoint committee, blinded to treatment group, reviewed all study-related documents related to episodes of acute urinary retention, and all prostate surgeries for BPH, excluding surgery for prostate cancer. The endpoint committee classified episodes of AUR as spontaneous versus precipitated (when contributing factors such as urinary tract infection, surgery anesthesia, ingestion of alpha sympathomimetic drugs or anticholinergics were identified).
Complete data on outcomes, including four-year follow-up information for men who had discontinued treatment, were available for 92% of the men randomized. In the other 8%, complete information was available until discontinuation of the medication or up to the 6-month follow-up assessment after discontinuation.
The effect of baseline serum PSA on the risk of BPH-related outcomes (developing AUR and need for BPH-related surgery), were assessed by dividing patients into tertiles of baseline serum PSA, and calculating the risk of developing an outcome by time-to-first event analysis as well as Fisher's exact test for cumulative incidence. The finasteride-related reduction in risk over 4 years was calculated using log rank analyses. All statistical tests were two-sided and a p-value of <0.05 accepted as significant.
The measurement characteristics of baseline in prediction of BPH-related outcomes were evaluated using receiver operating characteristic (ROC) curves. The area under the ROC curve (AUC) for a given population is given by the probability that a randomly chosen individual in the affected population has a higher value of the index (in this case PSA) than a randomly chosen individual in the non-affected population. The AUC's were computed using the method of Hanley and McNeil. Differences between AUC's in the finasteride and placebo group were tested using normal statistics with standard deviations computed by the same method.

[1] = 5 mg daily, four years, all patients
[2] = lowest tertile of serum PSA (0.0-1.3 ng/mL)
[3] = second tertile (serum PSA 1.4-3.2 ng/mL)

CC(C)(C)NC(=O)[C@H]1CC[C@H]2[C@@H]3CC[C@H]4NC(=O)C=C[C@]4(C)[C@H]3CC[C@]12C [finasteride, 17β-(N-tert-butylcarbamoyl)-3-oxo-4-aza-5α-androst-1-en-3-one]
incidence of BPH-related surgery [1]: 5% | incidence of precipitated AUR [1]: 2% | incidence of spontaneous AUR [1]: 1% | overall incidence of acute urinary retention (5 mg finasteride daily, four years, all patients): 4% | decrease of the risk of developing a BPH-related outcome (all subgroups examined): approximately half | increase of cumulative incidence of spontaneous AUR with increasing baseline serum PSA (finasteride-treated patients, four years, FIG. 1): nearly absent; also recorded: the risk remains unchanged over the entire serum PSA spectrum | increase of cumulative incidence of all AUR (spontaneous and precipitated combined) with increasing baseline serum PSA (finasteride-treated patients, four years, FIG. 2): nearly absent | increase of cumulative incidence of BPH-related surgery across baseline PSA values (finasteride-treated patients, four years, FIG. 3): increases only in finasteride-treated patients in men with a baseline PSA above 5.0 ng/mL | risk of AUR or BPH-related surgery (highest tertile of baseline serum PSA): 8.3% | risk of AUR or BPH-related surgery (lowest tertile of baseline serum PSA): 4.4% | 4-year relative risk for finasteride versus placebo-treated patients [2]: 0.57 | benefit of finasteride over placebo in the first two years (risk of AUR or surgery) [2]: minimal; also recorded: no apparent benefit | finasteride-related reduction of risk (AUR or surgery) [2]: 43% | 4-year relative risk for finasteride versus placebo-treated patients [3]: 0.54 | finasteride-related reduction of risk (AUR or surgery) [3]: 46% | 4-year relative risk for finasteride versus placebo treated patients (third tertile of serum PSA (3.3-12 ng/mL)): 0.40 | finasteride-related reduction of risk (AUR or surgery) (third/highest tertile of serum PSA (3.3-12 ng/mL)): 60%
